Like-named read-outs stand apart in the source and are kept apart here.
Molecular target: T1, sirtuin protein (Homo sapiens, UniProt Q96EB6)
T1 sequence (Q96EB6 2-747 limits assumed): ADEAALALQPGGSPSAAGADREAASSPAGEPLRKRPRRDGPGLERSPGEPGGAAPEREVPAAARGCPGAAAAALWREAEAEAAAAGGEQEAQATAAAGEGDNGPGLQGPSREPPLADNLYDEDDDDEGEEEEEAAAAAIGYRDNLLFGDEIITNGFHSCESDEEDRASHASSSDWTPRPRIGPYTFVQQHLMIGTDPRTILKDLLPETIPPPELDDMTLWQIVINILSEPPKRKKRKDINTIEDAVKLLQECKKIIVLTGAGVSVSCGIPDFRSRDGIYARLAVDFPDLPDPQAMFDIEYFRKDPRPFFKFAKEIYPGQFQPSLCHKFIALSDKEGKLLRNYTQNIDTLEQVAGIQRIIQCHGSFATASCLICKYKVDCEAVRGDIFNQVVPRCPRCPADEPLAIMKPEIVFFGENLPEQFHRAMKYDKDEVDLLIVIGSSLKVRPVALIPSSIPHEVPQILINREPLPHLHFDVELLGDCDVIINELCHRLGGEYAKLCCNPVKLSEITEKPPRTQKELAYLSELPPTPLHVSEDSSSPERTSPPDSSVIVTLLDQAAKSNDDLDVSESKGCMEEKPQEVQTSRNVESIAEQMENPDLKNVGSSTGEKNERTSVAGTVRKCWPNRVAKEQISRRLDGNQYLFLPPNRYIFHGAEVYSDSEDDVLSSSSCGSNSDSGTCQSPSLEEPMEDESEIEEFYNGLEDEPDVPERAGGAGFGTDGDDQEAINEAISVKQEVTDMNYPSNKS
Assay: MS assay (IC50 MS ASSAY / ED50 MS / FOLD ACTIVATION MS)
Type: biochemical
Design: scale not given here

[1] = MS assay, class symbols A′, A, B, D, NA, legend not given
[2] = Table 4, class symbols A′, A, B, D, NA, legend not given
[3] = class symbols (A′, A, B, D, NA), no legend given

COc1ccc(C(=O)Nc2ccc(-c3nc4ccccc4[nH]3)cc2)cc1OC [Compound 294]
A′: ED50 MS ASSAY [1] | ED50 MS ASSAY (Table 4) | ED50 MS ASSAY [2]

COc1ccc(C(=O)Nc2ccccc2-c2nc3cnccc3s2)c(OC)c1 [Compound 317]
A′: ED50 MS ASSAY [1] | ED50 MS ASSAY (Table 4) | ED50 MS ASSAY [2]

COc1cc(C(=O)Nc2ccccc2-c2nc3cnccc3s2)cc(OC)c1OC [Compound 319]
A′: ED50 MS ASSAY [1] | ED50 MS ASSAY (Table 4) | ED50 MS ASSAY [2]

CN(C)c1ccc(C(=O)Nc2ccccc2-c2nc3cnccc3s2)cc1 [Compound 320]
A′: ED50 MS ASSAY [1] | ED50 MS ASSAY (Table 4) | ED50 MS ASSAY [2]

CN(C)c1cccc(C(=O)Nc2ccccc2-c2nc3cnccc3s2)c1 [Compound 321]
A′: ED50 MS ASSAY [1] | ED50 MS ASSAY (Table 4) | ED50 MS ASSAY [2]

COc1cc(C(=O)Nc2ccc(-c3nc4ccncc4o3)cc2)cc(OC)c1OC [Compound 341]
A′: ED50 MS ASSAY [1] | ED50 MS ASSAY (Table 4) | ED50 MS ASSAY [2]

COc1cc(C(=O)Nc2ccc(-c3nc4cnccc4o3)cc2)cc(OC)c1OC [Compound 347]
A′: ED50 MS ASSAY [1] | ED50 MS ASSAY (Table 4) | ED50 MS ASSAY [2]

CN(C)c1cccc(C(=O)Nc2cccc(-c3nc4cnccc4s3)c2)c1 [Compound 402]
A′: ED50 MS ASSAY [1] | ED50 MS ASSAY (Table 4) | ED50 MS ASSAY [2]

CN(C)c1ccc(C(=O)Nc2cccc(-c3nc4cnccc4s3)c2)cc1 [Compound 403]
A′: ED50 MS ASSAY [1] | ED50 MS ASSAY (Table 4) | ED50 MS ASSAY [2]

COc1cc(OC)cc(C(=O)Nc2ccccc2-c2nc3cnccc3o2)c1 [Compound 404]
A′: ED50 MS ASSAY [1] | ED50 MS ASSAY (Table 4) | ED50 MS ASSAY [2]

COc1cc(C(=O)Nc2ccccc2-c2nc3cnccc3o2)cc(OC)c1OC [Compound 405]
A′: ED50 MS ASSAY [1] | ED50 MS ASSAY (Table 4) | ED50 MS ASSAY [2]

CN(C)c1cccc(C(=O)Nc2ccccc2-c2nc3cnccc3o2)c1 [Compound 406]
A′: ED50 MS ASSAY [1] | ED50 MS ASSAY (Table 4) | ED50 MS ASSAY [2]

CN(C)c1ccc(C(=O)Nc2ccccc2-c2nc3cnccc3o2)cc1 [Compound 407]
A′: ED50 MS ASSAY [1] | ED50 MS ASSAY (Table 4) | ED50 MS ASSAY [2]

COc1ccc(C(=O)Nc2ccc(-c3nc4cnccc4o3)s2)cc1OC [Compound 423]
A′: ED50 MS ASSAY [1] | ED50 MS ASSAY (Table 4) | ED50 MS ASSAY [2]

COc1cc(C(=O)Nc2ccc(-c3nc4cnccc4o3)s2)cc(OC)c1OC [Compound 426]
A′: ED50 MS ASSAY [1] | ED50 MS ASSAY (Table 4) | ED50 MS ASSAY [2]

CN(C)c1cccc(C(=O)Nc2ccc(-c3nc4cnccc4o3)s2)c1 [Compound 427]
A′: ED50 MS ASSAY [1] | ED50 MS ASSAY (Table 4) | ED50 MS ASSAY [2]

COc1ccc(C(=O)Nc2cccc(-c3nc4ccncc4o3)c2)c(OC)c1 [Compound 429]
A′: ED50 MS ASSAY [1] | ED50 MS ASSAY (Table 4) | ED50 MS ASSAY [2]

COc1ccc(C(=O)Nc2ccccc2-c2cn3cccnc3n2)cc1OC [Compound 438]
A′: ED50 MS ASSAY [1] | ED50 MS ASSAY (Table 4) | ED50 MS ASSAY [2]

COc1cc(C(=O)Nc2ccccc2-c2cn3cccnc3n2)cc(OC)c1OC [Compound 439]
A′: ED50 MS ASSAY [1] | ED50 MS ASSAY (Table 4) | ED50 MS ASSAY [2]

O=C(Nc1ccccc1-c1cn2c(CN3CCNCC3)csc2n1)c1cnc2ccccc2n1 [Compound 441]
A′: ED50 MS ASSAY [1] | ED50 MS ASSAY (Table 4) | ED50 MS ASSAY [2]

Cc1c(C(=O)Nc2ccccc2-c2cn3c(CN4CCNCC4)csc3n2)oc2ccccc12 [Compound 442]
A′: ED50 MS ASSAY [1] | ED50 MS ASSAY (Table 4) | ED50 MS ASSAY [2]

COc1ccc(C(=O)Nc2ccccc2-c2nc3ccncc3o2)c(OC)c1 [Compound 455]
A′: ED50 MS ASSAY [1] | ED50 MS ASSAY (Table 4) | ED50 MS ASSAY [2]

COc1cc(OC)cc(C(=O)Nc2ccccc2-c2nc3ccncc3o2)c1 [Compound 456]
A′: ED50 MS ASSAY [1] | ED50 MS ASSAY (Table 4) | ED50 MS ASSAY [2]

CN(C)c1cccc(C(=O)Nc2ccccc2-c2nc3ccncc3o2)c1 [Compound 458]
A′: ED50 MS ASSAY [1] | ED50 MS ASSAY (Table 4) | ED50 MS ASSAY [2]

CN(C)c1ccc(C(=O)Nc2ccccc2-c2nc3ccncc3o2)cc1 [Compound 459]
A′: ED50 MS ASSAY [1] | ED50 MS ASSAY (Table 4) | ED50 MS ASSAY (Table 4, class symbols) | ED50 MS ASSAY [2] | ED50 MS ASSAY [3]

Cc1cc(C)cc(C(=O)Nc2ccccc2-c2nc3ncccc3o2)c1 [Compound 481]
A′: ED50 MS ASSAY (Table 4, class symbols)

Cc1cc(C)cc(C(=O)Nc2ccccc2-c2nc3ncccc3o2)c1 [Compound 482]
A′: ED50 MS ASSAY | ED50 MS ASSAY (Table 4) | ED50 MS ASSAY [2] | ED50 MS ASSAY [3]

COc1cc(C(=O)Nc2ccccc2-c2nc3ccccc3[nH]2)ccc1CN1CCOCC1 [Compound 503]
A′: ED50 MS ASSAY | ED50 MS ASSAY (Table 4) | ED50 MS ASSAY (Table 4, class symbols) | ED50 MS ASSAY [2] | ED50 MS ASSAY [3]

COc1ccc(C(=O)Nc2ccc(C)cc2-c2nc3ccccc3[nH]2)cc1OC [Compound 507]
A′: ED50 MS ASSAY | ED50 MS ASSAY (Table 4) | ED50 MS ASSAY (Table 4, class symbols) | ED50 MS ASSAY [2] | ED50 MS ASSAY [3]

O=C(Nc1ccccc1-c1nc2ccccc2[nH]1)c1cnc2ccccc2n1 [Compound 508]
A′: ED50 MS ASSAY | ED50 MS ASSAY (Table 4) | ED50 MS ASSAY (Table 4, class symbols) | ED50 MS ASSAY [2] | ED50 MS ASSAY [3]

O=C(Nc1ccccc1-c1cn2c(CN3CCNCC3)csc2n1)c1c[nH]c2ccccc12 [Compound 510]
A′: ED50 MS ASSAY | ED50 MS ASSAY (Table 4) | ED50 MS ASSAY (Table 4, class symbols) | ED50 MS ASSAY [2] | ED50 MS ASSAY [3]

O=C(Nc1ccccc1-c1cn2c(CN3CCNCC3)csc2n1)c1c[nH]nc1-c1ccccc1 [Compound 512]
A′: ED50 MS ASSAY | ED50 MS ASSAY (Table 4) | ED50 MS ASSAY (Table 4, class symbols) | ED50 MS ASSAY [2] | ED50 MS ASSAY [3]

O=C(Nc1ccccc1-c1cn2cc(CN3CCNCC3)sc2n1)c1cnc2ccccc2n1 [Compound 513]
A′: ED50 MS ASSAY | ED50 MS ASSAY (Table 4) | ED50 MS ASSAY (Table 4, class symbols) | ED50 MS ASSAY [2] | ED50 MS ASSAY [3]

COc1ccc(C(=O)Nc2ccc(-c3nc4cnccc4s3)s2)c(OC)c1 [Compound 515]
A′: ED50 MS ASSAY | ED50 MS ASSAY (Table 4) | ED50 MS ASSAY (Table 4, class symbols) | ED50 MS ASSAY [2] | ED50 MS ASSAY [3]

CN(C)c1cccc(C(=O)Nc2ccc(-c3nc4cnccc4s3)s2)c1 [Compound 518]
A′: ED50 MS ASSAY | ED50 MS ASSAY (Table 4) | ED50 MS ASSAY (Table 4, class symbols) | ED50 MS ASSAY [2] | ED50 MS ASSAY [3]

CN(C)c1ccc(C(=O)Nc2ccc(-c3nc4cnccc4s3)s2)cc1 [Compound 519]
A′: ED50 MS ASSAY | ED50 MS ASSAY (Table 4) | ED50 MS ASSAY (Table 4, class symbols) | ED50 MS ASSAY [2] | ED50 MS ASSAY [3]

— patent publication US20100168084A1, “Therapeutic compounds and related methods of use” (priority 2008, published 2010)
